Results on 7 compounds are retold here after US4339379A, “N-Acrylcarnosine aluminum salts” (Nippon Chemiphar Co., Ltd., priority 1979, dated 1982).

Values joined by “and” are separate entries in the source; they are usually repeats but may differ in a detail not shown here. Equal entries are not always repeated.

For test [1], the system named is Indomethacin-induced ulcer. As to the kind of experiment: Indomethacin-induced ulcer in rats. It is filed as in vivo, male Donryu strain rats. The following applies: for Ulcer index: Indomethacin (25 mg/kg s.c.)-induced ulcer, 300 mg/kg P.O. ten minutes before pylorus ligation, total length of lesions. Here is the method:
Indomethacin-induced ulcer: Groups of ten male Donryu strain rats each weighing 200 to 215 g were deprived of food for 24 hours. Then, the pylorus was ligated under ether anethesia, after which indomethacin was administered subcutaneously in an amount of 25 mg/kg to each rat. Seven hours after the administration, each of the animals was sacrificed under ether anethesia to remove its stomach, followed by immersion in a 1% formalin solution for ten minutes. The stomach which had been semi-fixed was incised along its greater curvature, and the length (mm) of each lesion formed in the mucous membrane was measured under a dissecting microscope (10×). The total length (mm) of all the lesions of each rat was indicated as an ulcer index. Test medicine samples were given orally ten minutes before the pylorus legation.

For the next test, the system named is Shay's ulcer. As to the kind of experiment: Shay's ulcer (pylorus ligation) in rats. It is filed as in vivo, male Donryu strain rats. The following applies: for Ulcer index: total ulcerated area in forestomach. Here is the method:
Shay's ulcer: Groups of ten male Donryu strain rats each weighing 210 to 230 g were deprived of food for 48 hours. The pylorus of each rat was ligated according to the method of Shay et al [Gastroenterology, 5, 43-61 (1945)]. Each of the animals was allowed to stand abstained from food and water for further 14 hours and then sacrificed to remove its stomach. After collection of the gastric juice, the ulcerated area (mm^2) in the forestomach of each rat was measured under a dissecting microscope (10×). The total area (mm^2) of all the lesions of each rat was indicated as an ulcer index. Test medicine samples were given orally immediately after the pylorus ligation.

The mark [2] stands for this setting: Indomethacin-induced ulcer, 300 mg/kg P.O.
[3] abbreviates: rats, 1,000 mg/kg P.O. immediately after pylorus ligation.

In test [1], `NCCC(=O)N[C@@H](Cc1cnc[nH]1)C(=O)O` [L-Carnosine, L-carnosine] came in with a Ulcer index of 17.1 ± 3.1 mm. Also, in test [1] (setting [2]), the “% Inhibition” value is ~ 0%.
Compound `NC(=O)CC[C@H](N)C(=O)O` [L-Glutamine, L-glutamine] gave a Ulcer index in test [1] of 9.7 ± 3.9 mm. In test [1] (Rattus norvegicus, po, Indomethacin-induced ulcer, 300 mg/kg P.O.), this compound showed an inhibition at 300 mg/kg of 42.3%.
Consider `CC(=O)N[C@@H](CCC(N)=O)C(=O)O.[Al]` [N-Acetyl-L-glutamine aluminum, N-acetyl-L-glutamine aluminum], for which the inhibition at 2000 mg/kg with Shay's ulcer (Rattus norvegicus, po, rats, 2,000 mg/kg P.O.) came to 69%. In the test on Shay's ulcer (rats, 2,000 mg/kg P.O.), the “% Inhibition” value amounted to 67.7%. The Ulcer index in the test with Shay's ulcer (rats, 2,000 mg/kg P.O. immediately after pylorus ligation) was 0.9 ± 0.7 mm^2 and 1.0 ± 0.6 mm^2.
Consider N-acetyl-DL-carnosine aluminum salt, for which the “% Inhibition” value in the test with Shay's ulcer (rats, 1,000 mg/kg P.O.) worked out at 75.9%; in test [1] (setting [2]), 60.1%. Further, the Ulcer index in the test with Shay's ulcer (setting [3]) is 0.7 ± 0.8 mm^2; in test [1], 6.7 ± 3.0 mm.
The matching figures for N-acetyl-L-carnosine aluminum salt [B]: 72.4%, 61.3%, 0.8 ± 0.6 mm^2 and 6.5 ± 2.5 mm.
For the compound N-propionyl-L-carnosine aluminum salt, the “% Inhibition” value with Shay's ulcer (rats, 1,000 mg/kg P.O.) turned out to be 74.2%. Besides, the Ulcer index in the test on Shay's ulcer (setting [3]) is 0.8 ± 0.8 mm^2.
Regarding aluminum sucrose sulfate, the “% Inhibition” value was 72.4% and 71.0% in the test on Shay's ulcer (rats, 1,000 mg/kg P.O.); 56.0% in test [1] (setting [2]). In addition, the Ulcer index with Shay's ulcer (setting [3]) is 0.8 ± 0.6 mm^2 and 0.9 ± 0.5 mm^2; in test [1] it was 7.4 ± 2.8 mm.
